Assay results published in patent US20200068887A1, “TREATMENT FOR REMOVING ECTOPARASITES FROM FISH” (priority 2016, published 2020).

Assays:
Format in all cases: in vivo
[1] = test system: pre-adult and adult sea lice; experiment: Timescale of effect of imidacloprid against sea lice on killed salmon hosts; conditions: for lice that left the host: around 12° C.
Description: To determine the timescale of the effect of imidacloprid, salmon infected with pre-adult and adult sea lice were removed from a stock tank and killed using a sharp blow to the head.
For fish exposed to 0 ppm imidacloprid (negative controls), observations were made for 60 minutes. […] Three fish per treatment group were tested.
Observations on the time at which lice left the host, and the sex and stage of the sea louse was noted. Any lice that left the host were transferred to clean sea water immediately. Furthermore, any lice remaining on the host at the end of the exposure period were removed from the host and transferred to clean sea water.
Lice were observed both shortly after and approximately 2 hours after the end of the exposure period.
The ratio of male to female sea lice was around 50:50. The water temperature was around 12° C.

[2] = test system: fish; experiment: Safety of imidacloprid treatment on fish
Description: The safety of the imidacloprid treatment on fish was assessed. Fish held in a flow through tank containing 271.8 L of sea water were exposed to 65 ppm w/v of the active ingredient imidacloprid. 17.67 g of imidacloprid was dissolved in 100 ml of dimethyl sulfoxide (DMSO) and the solution was added to approximately 900 ml sea water and mixed. The flow on the through tank was disabled and the solution of imidacloprid was added.
The fish were exposed to 65 ppm imidacloprid in static water for 1 hour and observed for behavioural changes at 5-10 minute intervals. The fish were then held for a further 7 days before being terminated.

[3] = test system: Atlantic salmon; experiment: Fish behaviour/appearance and mortality during bath treatment trial; conditions: 20 ppm to 200 ppm, exposure 3 to 60 minutes
Description: Fish behaviour/appearance was assessed in vivo during each test. Any changes in behaviour and/or appearance including mortality were recorded.

[4] = test system: Lepeophtheirus salmonis; experiment: Immersion treatment of sea lice challenged salmon with 10, 30 and 50 ppm imidacloprid; conditions: for Abundance (and range) of adult female lice / Abundance (and range) of adult male lice / Abundance (and range) of ovigerous females / Mean abundance (and range) or all lice stages / Prevalence: lice counted week 8
Source text: Eight flow-through treatment tanks each containing 15 fish were set up. The fish were Salmon (Salmo salar) having an average weight of approximately 270 g and of mixed sex. Egg strings removed from ovigerous female Lepeophtheirus salmonis were collected and cultured until infective copepodids were produced. Eight bottles containing approximately 330-350 copepodids were each randomly allocated to a treatment tank (to provide an average of 22 lice per fish).
In preparation for the challenge, water flows in the tanks were stopped and light levels reduced. The lice were then added to each tank and the tanks maintained in total darkness for 6 hours after which light levels were raised and the water flow resumed.
The fish were challenged with sea lice for either one week or for six weeks.
One week after the sea lice challenge, fish in three of the tanks were treated with either 10 ppm w/v, 30 ppm w/v or 50 ppm w/v imidacloprid. One of the tanks was treated with 0.03% DMSO and another tank sham treated with sea water as controls.
For each treatment tank, the appropriate amount of imidacloprid (see Table 1) was dissolved in 100 ml of DMSO and mixed with approximately 900 ml of sea water from the experimental tank to obtain a treatment solution. The water flow on the experimental tanks was disabled and the treatment solution was then added.
Fish were exposed for 60 minutes in static water with full aeration and observed during the exposure period. At the end of the exposure period the water was rapidly drained to approximately ⅓ volume, before the flows were resumed in the tanks
Six weeks after the fish were challenged with sea lice, the fish in the three remaining treatment tanks were treated with either 10 ppm w/v, 30 ppm w/v or 50 ppm w/v imidacloprid. The treatment was carried out in the same way as for the treatment tanks one week post challenge (see 1.2.1).
Eight weeks after the fish were challenged with sea lice, the study was terminated. Fish were over anaesthetised in MS222 (tricaine methanesulfonate) and pithed using an Iki Jime tool. The length and weight of each fish and external symptoms were recorded. All lice were removed from each fish and note made of sex and stage of development. The lice were stored in ethanol and sex and stage confirmed using stereo microscope.
The data is expressed as prevalence and abundance. Prevalence is defined as the number of hosts infected with one of more individuals of a parasite species divided by the number of hosts examined (including infected and uninfected hosts) and expressed as a percentage.

[5] = 10 ppm w/v 60 min, treated 1 week post challenge
[6] = 10 ppm w/v 60 min, treated 6 weeks post challenge
[7] = 30 ppm w/v 60 min, treated 1 week post challenge
[8] = 30 ppm w/v 60 min, treated 6 weeks post challenge
[9] = 50 ppm w/v 60 min, treated 1 week post challenge, two fish removed from group
[10] = 50 ppm w/v 60 min, treated 6 weeks post challenge

For O=[N+]([O-])NC1=NCCN1Cc1ccc(Cl)nc1 [imidacloprid], which lice considered dead ([1]; 20 mg/L, 30 minutes post-exposure, of 49 lice) is on record?
The lice considered dead was “two”.

And the “signs of recovery in clean sea water” value ([1]; 20 ppm, lice exposed for 30 minutes)?
The value was “No lice exposed for 30 minutes showed signs of recovery”.

What about the “lice deemed alive and responsive” value ([1]; 20 ppm, out of 49 lice) of the same compound?
Its value is “Twelve”.

And the lice considered dead ([1]; 50 ppm, 2 hours p.e., of 21 lice)?
Its lice considered dead is 14 lice.

What about the lice considered dead ([1]; 50 ppm, at 30 minutes, of 21 lice) of the same compound?
The lice considered dead was “four”.

What about the lice considered dead ([1]; 100 ppm, 2 hours p.e.) of the same compound?
The lice considered dead was 17/28.

And the lice considered dead ([1]; 100 ppm, end of the exposure period, of 28 lice)?
The lice considered dead was “four”.

What about the lice considered dead ([1]; 200 ppm, 2 hours post-exposure, of 26 lice) of the same compound?
Its lice considered dead is “Six”.

And the lice considered dead ([1]; 200 ppm, end of the exposure period, of 26 lice)?
The lice considered dead was “four”.

What about the lice considered dead ([1]; 500 ppm, 30 minutes p.e., out of 20 lice) of the same compound?
Its lice considered dead is “Six”.

And the lice considered dead ([1]; 500 ppm, 2 hours p.e.)?
Its lice considered dead is 15/20.

And the “lice that left the host” value ([1]; 500 ppm, within the first 9 minutes)?
The value was “around 70%”.

What about the “lice that left the host” value ([1]; between 20 and 200 ppm, within the first 15 minutes) of the same compound?
The value was “around 50%”.

What about the “adverse reactions during monitoring after exposure” value ([2]; 65 ppm w/v for 1 hour, monitored a further 7 days) of the same compound?
The value was “no adverse reactions being noted”.

What about the “external pathologies on termination” value ([2]; 65 ppm w/v for 1 hour, terminated after 7 days) of the same compound?
The value was “no external pathologies were noted”.

What about the “changes in fish behaviour during the exposure period” value ([2]; 65 ppm w/v, static water, 1 hour) of the same compound?
The value was “No observable changes in fish behaviour”.

What about the “fish mortality in the trial” value [3] of the same compound?
Its value is “No fish died in the trial”.

What about the “prevalence of infection of all lice stages versus the two control groups” value ([4]; 10, 30 or 50 ppm w/v, treated one week post challenge, examined week 8) of the same compound?
Its value is “not considered to differ”.

And the “Abundance (and range) of adult female lice” value [4, 5]?
The value was 0.067 (0-1).

And the “Abundance (and range) of adult male lice” value [4, 5]?
The value was 0.87 (0-2).

And the “Abundance (and range) of ovigerous females” value [4, 5]?
Its value is 1.47 (0-3).

What about the “Mean abundance (and range) or all lice stages” value (shortened to “Mean abundance”) [4, 5] of the same compound?
The value was 2.4 (1-5).

What about the Prevalence [4, 5] of the same compound?
Its Prevalence is 100%.

What about the “Abundance (and range) of adult female lice” value [4, 6] of the same compound?
The value was 0.

And the “Abundance (and range) of adult male lice” value [4, 6]?
Its value is 0.

What about the “Abundance (and range) of ovigerous females” value [4, 6] of the same compound?
The value was 0.

What about the “Mean abundance” value [4, 6] of the same compound?
The value was 0.

What about the Prevalence [4, 6] of the same compound?
The Prevalence was 0%.

And the “infected fish (each with a single ovigerous female)” value ([4]; 10 ppm w/v, 6 weeks post challenge, 54 minutes after addition)?
The value was 2 fish.

And the “lice remaining on fish” value ([4]; 10 ppm w/v, 6 weeks post challenge, 91 minutes after addition, louse stayed at least five days)?
Its value is “a single male louse was observed on the head of its host”.

And the “lice observed in the water column” value ([4]; 10 ppm w/v, 6 weeks post challenge, first 19 minutes after addition)?
The value was “Lice were not observed in the water column”.

And the “Abundance (and range) of adult female lice” value [4, 7]?
Its value is 0 (0-0).

What about the “Abundance (and range) of adult male lice” value [4, 7] of the same compound?
Its value is 0.8 (0-1).

And the “Abundance (and range) of ovigerous females” value [4, 7]?
The value was 1.4 (0-3).

What about the “Mean abundance” value [4, 7] of the same compound?
The value was 2.2 (0-4).

And the Prevalence [4, 7]?
The Prevalence was 93.33%.

What about the “Abundance (and range) of adult female lice” value [4, 8] of the same compound?
The value was 0.

What about the “Abundance (and range) of adult male lice” value [4, 8] of the same compound?
Its value is 0.

What about the “Abundance (and range) of ovigerous females” value [4, 8] of the same compound?
Its value is 0.

And the “Mean abundance” value [4, 8]?
The value was 0.

What about the Prevalence [4, 8] of the same compound?
The Prevalence was 0%.

What about the “lice on the fish with re-attached lice” value ([4]; 30 ppm w/v, 6 weeks post challenge, 6 minutes after the 78 minute observation) of the same compound?
Its value is “no lice were observed on these fish”.

And the “lice observed in the water column” value ([4]; 30 ppm w/v, 6 weeks post challenge, 10 minutes after addition)?
Its value is 1-2 lice.

What about the “lice present in the water column” value ([4]; 30 ppm w/v, 6 weeks post challenge, 18 minutes after addition) of the same compound?
Its value is “approximately 10 lice”.

What about the “lice noted in the water” value ([4]; 30 ppm w/v, 6 weeks post challenge, 25 minutes after addition) of the same compound?
Its value is “approximately 20 lice”.

And the “fish appearing infected (estimated 1-2 lice per fish)” value ([4]; 30 ppm w/v, 6 weeks post challenge, 25 minutes after addition, 15 fish per tank)?
Its value is “less than 6 fish”.

What about the “infection status of fish” value ([4]; 30 ppm w/v, 6 weeks post challenge, 33 minutes after addition) of the same compound?
Its value is “most fish were considered to be negative for any lice infections”.

What about the “fish appearing infected (each with a single louse)” value ([4]; 30 ppm w/v, 6 weeks post challenge, 47 minutes after addition) of the same compound?
Its value is 3 fish.

And the “infection status of fish” value ([4]; 30 ppm w/v, 6 weeks post challenge, 59 minutes after addition)?
The value was “no fish were visibly infected with lice”.

What about the “fish with re-attached louse (1 louse each)” value ([4]; 30 ppm w/v, 6 weeks post challenge, 78 minutes after addition) of the same compound?
The value was 4 fish.

And the “lesions associated with feeding and attachment of lice” value ([4]; 30 ppm w/v, two days post-treatment)?
The value was “almost completely resolved”.

And the “Abundance (and range) of adult male lice” value [4, 9]?
Its value is 1.23 (0-3).

And the “Abundance (and range) of ovigerous females” value [4, 9]?
The value was 1.69 (0-5).

And the “Abundance (and range) of adult female lice” value [4, 10]?
Its value is 0.

What about the “Abundance (and range) of adult male lice” value [4, 10] of the same compound?
The value was 0.

What about the “Abundance (and range) of ovigerous females” value [4, 10] of the same compound?
Its value is 0.

And the “Mean abundance” value [4, 10]?
The value was 0.

And the Prevalence [4, 10]?
Its Prevalence is 0%.

And the “fish noted as infected (each with a single louse)” value ([4]; 50 ppm w/v, 6 weeks post challenge, 44 minutes after addition, 15 fish per tank)?
The value was “five”.

And the “fish with a single louse infection” value ([4]; 50 ppm w/v, 6 weeks post challenge, 53 minutes after addition)?
The value was 2-3 fish.

And the “lice remaining on fish” value ([4]; 50 ppm w/v, 6 weeks post challenge, 58 minutes after addition)?
The value was “only one louse was apparent on a single fish”.

What about the “lice remaining on fish” value ([4]; 50 ppm w/v, 6 weeks post challenge, 81 minutes after addition) of the same compound?
The value was “no lice were visible on the fish”.

What about the “lice detached from the host, free in the water column” value ([4]; 50 ppm w/v, 6 weeks post challenge, after 12 minutes) of the same compound?
Its value is “approximately 10 lice”.

What about the “lice observed in the water column” value ([4]; 50 ppm w/v, 6 weeks post challenge, after 18 minutes) of the same compound?
The value was “approximately 20 lice”.

And the “lice observed in the water column” value ([4]; 50 ppm w/v, 6 weeks post challenge, between 2 and 6 minutes after addition)?
Its value is “No lice were observed”.

What about the “lesions associated with feeding and attachment of lice” value ([4]; 50 ppm w/v, two days post treatment) of the same compound?
The value was “almost completely resolved”.

And the “effectiveness against motile parasitic stages of lice” value ([4]; all treatment doses (10, 30, 50 ppm w/v), treated six weeks after challenge)?
Its value is 100%.

And the “overall lice abundances compared with the DMSO control” value ([4]; treated one week post challenge)?
The value was “No significant differences”.
